Measured values as given in patent publication US11780841B2, “3,6-methano-1H-pyrrolo[3,2-b]pyridine and 3,6-methano-1H-pyrrolo[3,2-c]pyridine compounds and medicaments using same” (priority 2018, dated 2023).

Tested on: recombinant rabies virus 1088 strain expressing Gaussia Luciferase (GLuc) (1088/GLuc)
Assay type: cell-based
Settings: read-out: Anti-rabies activity

`O=C(O)CCN1C[C@@H]2C[C@@H]3CN[C@]2(C(=O)NCc2ccc(F)cc2)[C@@H]1[C@@H]3Cc1ccccc1` [IB-394] and `O=C(NCc1ccc(F)cc1)C12NCC3CC1CN(CCO)C2C3Cc1ccc(O)cc1` (stereo not shown) [IB-549] fall in the same range of IC50: 10 to 30 µM for the first, 10 to 30 µM for the second.

`CC(C)CCN1C[C@@H]2C[C@@H]3CN[C@]2(C(=O)NCC(C)C)[C@@H]1[C@@H]3CC(C)C` [IB-753] and `CC(C)CNC(=O)[C@]12NC[C@H]3C[C@H]1CN(CCc1ccccc1)[C@H]2[C@@H]3CC(C)C` [IB-760] cannot be ordered by IC50: less than 5 µM for the first, less than 5 µM for the second.

First: O=C(NCCO)[C@@]12C[C@@H]3CN(CC4CCCCC4)[C@@H]([C@@H]3CN1)[C@H]2Cc1cccc2ccccc12 [IF-619]
Second: CC(C)CNC(=O)[C@@]12C[C@@H]3CN(CC4CCCCC4)[C@@H]([C@@H]3CN1)[C@H]2Cc1cccc2ccccc12 [IF-646]
The IC50 of the first is higher: 10 to 30 µM for the first, less than 5 µM for the second. The second is the more potent here.

`CCCCCCNC(=O)[C@]12NC[C@H]3C[C@H]1CN(CCO)[C@H]2[C@@H]3CC(C)C` [IB-477] and `CC(C)C[C@@H]1[C@H]2CN[C@@]3(C(=O)NCCC(N)=O)[C@@H](C2)CN(CCc2ccccc2)[C@@H]13` [IB-708] cannot be ordered by IC50: less than 5 µM for the first, less than 5 µM for the second.

`CC(C)CC1C2C3C=NC1(C(=O)NCc1ccc4ccccc4c1)CC3CN2Cc1ccccc1` (stereo not shown) [IIF-102] and `CC(C)C[C@@H]1[C@@H]2[C@@H]3CN[C@@]1(C(=O)NCCc1ccccc1)C[C@@H]3CN2Cc1ccccc1` [IF-721] cannot be ordered by IC50: less than 5 µM for the first, less than 5 µM for the second.

Compared with `NC(=O)CCNC(=O)[C@]12NC[C@H]3C[C@H]1CN(Cc1ccccc1)[C@H]2[C@@H]3Cc1cccc2ccccc12` [IB-813], `CC(C)CNC(=O)C12NCC3CC1CN(CCC(=O)O)C2C3Cc1cccc2ccccc12` (stereo not shown) [IB-575] is higher in IC50: less than 5 µM for the first, 10 to 30 µM for the second. The first is the more potent here.

`CC(C)C[C@@H]1[C@H]2CN[C@@]3(C(=O)NCc4ccc(F)cc4)[C@@H](C2)CN(Cc2ccc(O)cc2)[C@@H]13` [IB-499] and `CC(C)CCNC(=O)[C@]12NC[C@H]3C[C@H]1CN(Cc1ccccc1)[C@H]2[C@@H]3Cc1ccc(O)cc1` [IB-678] cannot be ordered by IC50: less than 5 µM for the first, less than 5 µM for the second.

First: CC(C)CC1C2C=NC3(C(=O)NCc4ccccc4)C(C2)CN(Cc2ccc(C(C)(C)C)cc2)C13 (stereo not shown) [IIB-95]
Second: Cc1ccc(CN2C[C@@H]3C[C@@H]4CN(C(N)=O)[C@]3(C(=O)NCc3ccccc3)[C@@H]2[C@@H]4CC(C)C)cc1 (relative stereo) [IB-888]
The IC50 of the first is lower: 5 to 10 µM for the first, 10 to 30 µM for the second. The first is the more potent here.

`CC(C)CCN1C[C@@H]2C[C@@H]3CN[C@]2(C(=O)NCc2ccccc2)[C@@H]1[C@@H]3CC(C)C` [IB-876] and `CC(C)CCN1C[C@@H]2C[C@@H]3CN[C@]2(C(=O)NCc2ccccc2)[C@@H]1[C@@H]3CCC(=O)O` [IB-505] fall in the same range of IC50: 10 to 30 µM for the first, 10 to 30 µM for the second.

Compared with `CC(C)CCNC(=O)[C@]12NC[C@H]3C[C@H]1CN(CC(C)C)[C@H]2[C@@H]3Cc1ccccc1` [IB-780], `CC(C)CCNC(=O)[C@@]12C[C@@H]3CN(Cc4ccccc4)[C@@H]([C@@H]3CN1)[C@H]2CC(C)C` [IF-691] is higher in IC50: less than 5 µM for the first, 10 to 30 µM for the second. The first is the more potent here.

`CCCCCCNC(=O)[C@]12NC[C@H]3C[C@H]1CN(CCCNC(=N)N)[C@H]2[C@@H]3CCc1ccccc1` [IB-174] and `CC(C)CC[C@@H]1[C@H]2CN[C@@]3(C(=O)NCc4cccc5ccccc45)[C@@H](C2)CN(CC(N)=O)[C@@H]13` [IB-84] fall in the same range of IC50: 10 to 30 µM for the first, 10 to 30 µM for the second.

First: O=C(NCc1ccc(F)cc1)C12NCC3CC1CN(Cc1ccccc1)C2C3CCc1ccccc1 (stereo not shown) [IB-568]
Second: CC(C)C[C@@H]1[C@@H]2[C@@H]3CN[C@@]1(C(=O)NCc1ccc(O)cc1)C[C@@H]3CN2Cc1cccc2ccccc12 [IF-473]
The IC50 of the first is higher: 10 to 30 µM for the first, less than 5 µM for the second. The second is the more potent here.

`O=C(O)CCNC(=O)[C@@]12C[C@@H]3CN(CCO)[C@@H]([C@@H]3CN1)[C@H]2Cc1cccc2ccccc12` [IF-444] and `O=C(O)CC[C@@H]1[C@@H]2[C@@H]3CN[C@@]1(C(=O)NCc1cccc4ccccc14)C[C@@H]3CN2CC1CCCCC1` [IF-419] fall in the same range of IC50: 10 to 30 µM for the first, 10 to 30 µM for the second.

Compared with `CC(C)CC[C@@H]1[C@H]2CN[C@@]3(C(=O)NC(C)C)[C@@H](C2)CN(Cc2ccc(O)cc2)[C@@H]13` [IB-501], `CC(C)NC(=O)[C@@]12C[C@@H]3CN(Cc4cccc5ccccc45)[C@@H]([C@@H]3CN1)[C@H]2Cc1cccc2ccccc12` [IF-596] is higher in IC50: less than 5 µM for the first, 10 to 30 µM for the second.
